US20090280098A1 (priority 2006, published 2009)
“And” between values parts separate entries of the source, which are not always exact repeats. Equal values may be shown once.

Key:
[1] = tested on: enzymatic activity for fatty acid synthesis; settings: cellobiose-added feedstuff; cited from earlier work
[2] = cellobiose-added high sucrose food for 4 weeks; versus control rats; cited from earlier work
[3] = tested on: enzymatic activity for fatty acid degradation; settings: cellobiose-added feedstuff; cited from earlier work
cellooligosaccharide = assay type: cell-based

Molecule	enzymatic activity for fatty acid synthesis [1]	body fat ratio [2]	levels of total cholesterol and neutral fat [2]	enzymatic activity for fatty acid degradation [3]	Amount of produced Lactic acid (cellooligosaccharide)
O=C[C@H](O)[C@@H](O)[C@H](O[C@@H]1O[C@H](CO)[C@@H](O)[C@H](O)[C@H]1O)[C@H](O)CO [cellobiose]	inhibited	reduced	reduced	increased	
Bifidobacterium					1.01 mM and 1.08 mM
